Test results reported in patent US9233903B2, “Pharmaceutical substances on the basis of mitochondria-addressed antioxidants” (Mitotech SA, priority 2009, dated 2016).
One block for each molecule: values may come before it.

How the values were obtained:
[1] = system: E. coli MG1655 pLUX::PkatG
Source text: (§1) To test pro-oxidant and antioxidant properties of mitochondria-addressed compounds of general formula (I), a method for determining oxidative stress in E. coli cells was developed. For this purpose, a biosensor system was created based on luxAB genes encoding bacterial luciferases to study effect of penetrating ions on oxidative stress in a bacterial cell.
The lux-biosensors were developed on the basis of these inducible promoters.
(§2) All the promoters used in the method, with corresponding regulatory regions, were obtained from the genome of the E. coli K12 MG1655 bacteria by the PCR method with the use of specific synthesized primers. A non-promoter vector with the pBR322 replicon and bla gene responsible for resistance to ampicillin (selective marker) was used as a vector. The promoter region was embedded into the plasmid at the EcoRI-BamHI sites. The lux operon of Ph. luminescens consisting of five genes, luxCDABE, was selected as the lux cassette.
(§3) In the first phase of testing, conditions for oxidative stress induction at which the maximum induction of luminescence occurs, were selected.

[2] = system: HeLa cells; assay: H2O2-induced oxidative stress in cells, DCF-DA cytofluorimetry; type: cell-based, human; details: incubation for 1 to 5 hours
Experimental: To measure the level of oxidative stress stimulated by H2O2, cells were stained with fluorescent dye DCF-DA (2′,7′-dichloro-dihydrofluorescein diacetate), and the level of fluorescence of the dye was measured with a cytofluorimeter.
Estimates were made on the basis of seven experiments. Data were estimated with respect to a group of the control cells lying on the diagram in the area of low DCF-DA fluorescence (50% of the population), this group of cells was taken as 100% and indicators for every action were estimated relative to this group.

[3] = Penetrating ability on artificial black (bilayer phospholipid) membranes, membrane potential; type: physicochemical; details: for penetrating ability: bilayer membrane, comparison between compounds; for membrane potential (Δψ) generated: concentration range from 10^−7 to 10^−6 M, FIG. 2B
Source text: To test the penetrating ability of mitochondria-addressed compounds of structure (I), a method is used based on the ability of ions to penetrate through the phospholipid membrane bilayer moving along the concentration gradient. […] If a charged substance can penetrate through the bilayer membrane, its rapid diffusion out of the chamber having a high concentration of the substance, to the chamber having a low concentration of the substance, occurs, and thus a membrane potential difference is created. For ions which are carrying one charge and able to easily penetrate through the membrane, a 10-fold concentration gradient allows for creation of a potential of 60 mV (according to the Nernst equation). This method was used in various studies of the ability of ions to pass through the lipid bilayer of the membrane.

[4] = system: gramicidin channels; assay: Protection of gramicidin channels in bilayer membrane, damage by FeSO4, ascorbate and tert-butyl hydroperoxide; type: biochemical; details: FeSO4, ascorbate, tert-butyl hydroperoxide; FIG. 3B
Source text: A method was developed which allows the study of the antioxidant activity of compounds in a simple system consisting of a bilayer membrane, […]). […]

[5] = system: HeLa and normal human diploid fibroblasts; assay: Protection of cells against H2O2-induced death (apoptosis), Hoechst/PI counting; type: cell-based; details: incubation with the cells for 5 to 7 days
Experimental: Testing of the antioxidant capacity of the compounds was performed using the methods of cytofluometry and fluorescence microscopy.
In preliminary experiments for each cell culture, the optimal concentration of H2O2 which causes significant (60% to 80%) cell apoptosis with no visible signs of necrosis was selected. To determine the chromatin condensation and fragmentation which occurs in apoptotic cells, the fluorescent dye Hoechst was used. The dye at a concentration of 1 μg/ml was added to live or fixed cells at the end of a 30 min incubation. To determine necrosis, the fluorescent dye propidium iodide (PI) at a concentration of 2 μg/ml was added to non-fixed cells. The percentage of apoptotic and necrotic cells was determined by counting the number of cells with fragmented nuclei and cells permeable to propidium iodide, respectively.

[6] = system: mitochondria; assay: Accumulation in mitochondria measured with tetraphenylphosphonium-selective electrode; type: in vitro ADME; details: FCCP uncoupler; FIG. 4
Experimental: The ability of compounds of general formula (I) to accumulate in mitochondria was tested using a tetraphenylphosphonium-selective electrode. The method is used for compounds of general formula (I) in which the lipophilic cation tetraphenylphosphonium is used as the target group. With this electrode, it is possible to measure distribution of tetraphenylphosphonium cation (or compounds which comprise this cation) between the mitochondrial matrix and the medium.

[7] = Solubility in aqueous solutions
[8] = system: E. coli MG1655 pLUX::PsoxS; type: cell-based
Source text: as §1
The PsoxS promoter is activated when superoxide ion-radical appears in the environment. The lux-biosensors were developed on the basis of these inducible promoters.
as §2, §3

[9] = system: gramicidin channels; assay: Protection of gramicidin channels in bilayer membrane, damage by photoactivated phthalocyanine; type: biochemical; details: photoactivation of phthalocyanine; FIG. 3A
Source text: A method was developed which allows the study of the antioxidant activity of compounds in a simple system consisting of a bilayer membrane, a conducting protein gramicidin and a photosensitizer (Mito Tracker Red, Invitrogen, Carlsbad, Calif.), thrice sulfonated aluminum phthalocyanine or zinc phthalocyanine). The method uses the ability of reactive oxygen species generated by photoactivation of the photosensitizer molecules to damage gramicidin channels, resulting in a sharp decrease in the conducting ability of the bilayer membrane.

Molecule: OO [Compound H2O2, hydrogen peroxide]
time at which induction of luminescence becomes evident ([1]; FIG. 10A): ≤ 15 min
time to maximum luminescence ([1]; FIG. 10A): one hour
ratio of luminescence intensity between control cells and induced cells ([1]; optimal concentrations of H2O2): 1/80

Molecule: COC1=C(OC)C(=O)C(CCCCCCCCCC[P+](c2ccccc2)(c2ccccc2)c2ccccc2)=C(C)C1=O [MitoQ]
effect on H2O2-induced oxidative stress in cells [2]: did not prevent
penetrating ability [3]: less penetrating abilities compared to SkQ3 or SkQR1
antioxidant efficiency, protection of gramicidin channels [4]: less efficient antioxidants
resistance of cells to H2O2 [5]: increase resistance of cells to H2O2

Molecule: CC1=C(C)C(=O)C(CCCCCCCCCC[P+](c2ccccc2)(c2ccccc2)c2ccccc2)=CC1=O [SkQ1, [10-(4,5-dimethyl-3,6-dioxo-cyclohexa-1,4-dien-1-yl)decyl]-triphenylphosphonium bromide]
energy-independent accumulation in mitochondria [6]: independent of the degree of energization of the mitochondria

Molecule: CC1=C(C)C(=O)C(CCCCCCCCCC[P+](c2ccccc2)(c2ccccc2)c2ccccc2)=C(C)C1=O [SkQ3]
antioxidant efficiency, protection of gramicidin channels [4]: less efficient antioxidants

energy-independent accumulation in mitochondria [6]: reduced
Molecule: CC1=C(C)C(=O)C(CCCCC[P+](c2ccccc2)(c2ccccc2)c2ccccc2)=CC1=O [SkQ5]

solubility in aqueous solutions [7]: poor solubility
membrane potential (Δψ) generated [3]: almost the same Δψ as SkQ1
Molecule: COc1ccc2c(CC(=O)OCCCCCCCC3=CC(=O)C(C)=C(C)C3=O)c3[n+](cc2c1OC)CCc1cc2c(cc1-3)OCO2 [SkQB1, 13-[7-(4,5-dimethyl-3,6-dioxo-cyclohexa-1,4-dien-1-yl)heptyloxycarbonyl-methyl]berberine]

membrane potential (Δψ) generated [3]: almost the same Δψ as SkQ1
Molecule: COc1cc2c(cc1OC)-c1c(CC(=O)OCCCCCCCC3=CC(=O)C(C)=C(C)C3=O)c3ccc(OC)c(OC)c3c[n+]1CC2 [SkQBP1, 13-[7-(4,5-dimethyl-3,6-dioxo-cyclohexa-1,4-dien-1-yl)heptyloxycarbonyl-methyl]palmatine]

penetrating ability [3]: higher penetrating ability
Molecule: CC/N=c1/cc2oc3cc(NCC)c(C)cc3c(-c3ccccc3C(=O)OCCCCCCCCCCC3=CC(=O)C(C)=C(C)C3=O)c-2cc1C [SkQR1]
effect on H2O2-induced oxidative stress in cells [2]: has antioxidant activity
concentration above which compound ceases to obey the Nernst equation (membrane damage) ([3]; FIG. 2A): higher than 5×10^−5 M

Molecule: C[n+]1ccc(-c2cc[n+](C)cc2)cc1 [paraquat]
time at which induction of luminescence becomes evident ([8]; FIG. 10B): 15 to 20 min
time to maximum luminescence ([8]; FIG. 10B): two hours
ratio of luminescence intensity between control cells and induced cells ([8]; optimal concentrations of paraquat): 1/100

Molecule: superoxide dismutase
prevention of fall in membrane conductance (gramicidin channels) [9]: effectively blocked
